# Activity calls are given as the source filed them.
# Columns and labels:
# [1] = molecular target: Paired box protein Pax-8 (Homo sapiens, UniProt Q06710); assay: PAX8 transcriptional activity inhibition in RMG-I – RMG-I cells, luciferase, cherry-pick, dose response (AID 687027); type: functional, cell-based;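 further: luciferase reporter driven by Pax8 target thyroperoxidase promoter measured by SteadyGlo luminescence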
# [2] = tested on: BJ; assay: BJ-TERT fibroblast viability loss – cell-based, RAS-independent, luminescence, dose response (AID 1933); type: functional; conditions: Homo sapiens
# [3] = tested on: BJ; assay: cells; type: functional, cell-based; conditions: Homo sapiens
# [4] = tested on: BJ; assay: BJ-TERT-LT-ST fibroblast viability loss – cell-based, RAS-independent, luminescence, dose response (AID 1935); type: functional; conditions: Homo sapiens;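 further: BJ fibroblasts immortalized with TERT plus LT and ST oncogenes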
# [5] = DRD fibroblast viability loss – cell-based, non-viral oncogenic, luminescence, dose response (AID 1934); type: functional; conditions: Homo sapiens
# [6] = molecular target: T1, Leucine aminopeptidase (Plasmodium falciparum 3D7, UniProt Q8IL11); assay: P. falciparum M17LAP inhibitors, primary screen, biochemical, fluorogenic H-Leu-NHMec substrate, 1536-well (AID 1619); type: functional
# T1 sequence (Q8IL11 whole entry): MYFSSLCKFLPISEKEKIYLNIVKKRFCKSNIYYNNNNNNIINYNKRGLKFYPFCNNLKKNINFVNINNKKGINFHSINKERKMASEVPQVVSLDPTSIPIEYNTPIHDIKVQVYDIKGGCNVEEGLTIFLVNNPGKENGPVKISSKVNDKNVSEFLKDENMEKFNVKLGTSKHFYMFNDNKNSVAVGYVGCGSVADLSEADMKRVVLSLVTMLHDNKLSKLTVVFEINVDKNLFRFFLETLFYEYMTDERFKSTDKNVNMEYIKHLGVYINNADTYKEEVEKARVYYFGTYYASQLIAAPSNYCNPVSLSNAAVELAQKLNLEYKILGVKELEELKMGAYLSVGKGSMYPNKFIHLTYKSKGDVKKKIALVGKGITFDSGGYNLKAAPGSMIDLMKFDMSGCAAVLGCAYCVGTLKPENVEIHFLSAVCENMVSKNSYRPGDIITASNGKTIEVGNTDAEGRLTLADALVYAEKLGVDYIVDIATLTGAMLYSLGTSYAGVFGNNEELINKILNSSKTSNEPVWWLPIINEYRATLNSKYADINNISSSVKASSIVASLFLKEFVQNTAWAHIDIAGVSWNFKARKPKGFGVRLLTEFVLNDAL
# [7] = tested on: Streptococcus sp. 'group A'; assay: Streptococcus pyogenes SK(-)GAS viability under kanamycin – luminescence, BacTiterGlo, confirmation, counter-screen for streptokinase expression inhibitor project, dose response (AID 1900); type: functional, organism-based
# [8] = molecular target: T2, Streptokinase A (Streptococcus pyogenes serotype M1, UniProt P10520); assay: viability-normalized secreted streptokinase activity reduction – plasminogen activation absorbance, OD405, dose response (AID 1914); type: functional, Streptococcus pyogenes M1 GAS;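 further: secreted streptokinase activity via plasminogen activation per viability signal from cell pellet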
# T2 sequence (P10520 whole entry): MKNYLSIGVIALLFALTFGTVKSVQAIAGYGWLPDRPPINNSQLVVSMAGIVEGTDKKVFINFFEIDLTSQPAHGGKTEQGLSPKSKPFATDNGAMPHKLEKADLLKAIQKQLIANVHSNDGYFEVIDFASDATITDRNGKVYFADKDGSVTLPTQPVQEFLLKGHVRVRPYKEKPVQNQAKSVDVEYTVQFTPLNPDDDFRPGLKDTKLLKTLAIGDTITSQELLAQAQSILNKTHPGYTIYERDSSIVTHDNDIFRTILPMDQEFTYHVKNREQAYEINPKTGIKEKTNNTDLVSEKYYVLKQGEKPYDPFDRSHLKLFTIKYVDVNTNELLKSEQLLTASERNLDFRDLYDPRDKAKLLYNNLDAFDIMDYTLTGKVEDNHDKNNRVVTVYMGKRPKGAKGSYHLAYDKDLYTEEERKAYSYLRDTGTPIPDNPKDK
# [9] = viability of PTEN-deleted HCT116 cells – cell-based, HCT116 PTEN knockout, dose response (AID 1047); type: functional;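 further: HCT116 colon tumor cells with PTEN knocked out; cells exposed to compound for 60 hours before readout; potency for loss of cell viability measured by luminescence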
# [10] = viability of HCT116 lacking mutant beta-catenin – cell-based, human colon tumor, dose response (AID 1045); type: functional;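 further: HCT116 colon tumor cells with beta catenin knocked out; cells exposed to compound for 60 hours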
# [11] = tested on: Streptococcus; assay: GAS UMAA2166 growth inhibition – luminescence, BacTiterGlo, counter-screen for streptokinase expression inhibitor project, dose response (AID 1915); type: functional, organism-based;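 further: potency for reduction of bacterial viability or growth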
# [12] = molecular target: FAD-linked sulfhydryl oxidase ALR (Homo sapiens, UniProt P55789); assay: ALR-catalysed DTT oxidation blockers – biochemical, H2O2 detection, luminescence, cherry-pick, dose response (AID 493248)
# Chain of FAD-linked sulfhydryl oxidase ALR (P55789 whole entry): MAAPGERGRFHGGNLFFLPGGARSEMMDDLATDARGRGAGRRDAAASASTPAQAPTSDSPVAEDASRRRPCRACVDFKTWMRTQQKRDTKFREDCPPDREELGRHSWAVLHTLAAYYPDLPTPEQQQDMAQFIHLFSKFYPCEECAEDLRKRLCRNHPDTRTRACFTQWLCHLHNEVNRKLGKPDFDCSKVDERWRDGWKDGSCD
# [13] = Luminescence Cell-Based Dose Retest to Confirm Inhibitors of Cancer Stem Cells. [Related pubchem assays (depositor defined):AID2717, AID2721]; type: functional; conditions: Homo sapiens
# [14] = Trypanosoma cruzi growth suppression in host cells – NIH3T3 host cells, beta-gal luminescence, confirmation (AID 2044); type: functional, cell-based;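 further: intracellular parasites grown in NIH/3T3 mouse fibroblasts as host cells; luminescent beta-galactosidase reporter signal from transgenic T. cruzi replicating inside host cells; inhibitors lower the luminescence signal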
# [15] = NIH3T3 cell viability loss – ATP luminescence, mouse fibroblasts, counter-screen, dose response (AID 2010); type: functional, cell-based;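 further: cells exposed to compound for about 90 hours before reading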
# Chain of Paired box protein Pax-8 (Q06710 whole entry): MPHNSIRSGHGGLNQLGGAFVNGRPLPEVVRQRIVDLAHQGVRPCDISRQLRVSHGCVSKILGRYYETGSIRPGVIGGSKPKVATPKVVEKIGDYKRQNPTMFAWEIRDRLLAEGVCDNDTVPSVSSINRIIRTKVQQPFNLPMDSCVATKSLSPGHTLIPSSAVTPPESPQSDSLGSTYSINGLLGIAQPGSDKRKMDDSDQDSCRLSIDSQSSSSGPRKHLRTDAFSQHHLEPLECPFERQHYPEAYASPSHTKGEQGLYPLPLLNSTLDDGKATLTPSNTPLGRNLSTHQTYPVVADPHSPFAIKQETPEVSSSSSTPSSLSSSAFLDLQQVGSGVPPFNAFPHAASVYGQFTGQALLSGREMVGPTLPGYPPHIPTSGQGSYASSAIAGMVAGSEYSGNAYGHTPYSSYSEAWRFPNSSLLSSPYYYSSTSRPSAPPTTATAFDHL
smiles,measurement,setting,value
Cc1ccc(S(=O)(=O)Nc2ccc3c(c2)C(=O)N([C@@H](C)CO)C[C@@H](C)[C@H](CN(C)S(=O)(=O)c2ccc(Cl)cc2)OCCCC[C@@H](C)O3)cc1,AC50,[1],4.47 µM (active)
CCn1c2ccccc2c2cc(NC(=O)CNCc3ccccc3OC)ccc21,EC50,[2],7.54 µM (inconclusive)
same,EC50,[3],> 150 µM (inconclusive)
same,EC50,[4],41.6 µM (inconclusive)
same,EC50,[5],4.21 µM (active)
C=CCn1c(=S)[nH]c2sc3c(c2c1=O)CCC3,IC50,[6],46.2 µM (active)
O=C(O)c1cccc(CN2C(=O)SC(Nc3ccccc3)C2=O)c1 (stereo not drawn),IC50,[6],34.3 µM (active)
C/C(N)=C(/C#N)C(=O)COC(=O)c1cc(-c2ccc(Br)cc2)nc2ccccc12,EC50,[7],11.9 µM (active)
same,EC50,[8],4.43 µM (active)
same,EC50,[9],25 µM (active)
same,EC50,[10],24.9 µM (active)
same,EC50,[11],18.7 µM (active)
O=C(N/N=C/c1ccsc1)c1cc(-c2cccs2)nc2ccccc12,AC50,[1],51.8 µM (active)
C[C@@H]1CCCCO[C@@H](CN(C)Cc2ccc(C(F)(F)F)cc2)[C@@H](C)CN([C@@H](C)CO)C(=O)c2cc(NS(=O)(=O)c3ccc(F)cc3)ccc2O1,AC50,[1],8.7 µM (active)
N#C[C@H]1[C@H](c2ccc(C#CC3CCCCC3)cc2)[C@H](CO)N1C(=O)Nc1ccc(F)cc1,AC50,[1],20.8 µM (active)
Cc1cccc(C)c1Nc1nnc(SC(C)C(=O)Nc2c(C)n(C)n(-c3ccccc3)c2=O)s1 (stereo not drawn),IC50,[6],13.5 µM (active)
O=C(CSc1ncccc1C(=O)O)NCCC1=CCCCC1,IC50,[6],29.2 µM (active)
c1ccc(-c2nnc(Sc3ncnc4c3cnn4-c3ccccc3)[nH]2)cc1,IC50,[6],64.8 µM (active)
Nc1nnc(Nc2ccc(Cl)cc2)[nH]1,IC50,[6],6.6 µM (active)
same,AC50,[12],4.22 µM (active)
CCOC(=O)c1sc(NC(=O)c2cc(-c3ccc(C)cc3)nc3ccccc23)c(C#N)c1C,EC50,[9],9.45 µM (active)
same,EC50,[10],10.5 µM (active)
CC1SCC(=O)N(CC(=O)Nc2ccc3c(c2)OCO3)C1=O (stereo not drawn),IC50,[6],29.4 µM (active)
COc1ccc(-c2cc(-c3ccccc3)c(C#N)c(S(C)(=O)=O)n2)cc1,EC50,[9],7.91 µM (active)
same,EC50,[10],5.07 µM (active)
same,AC50,[1],6.98 µM (active)
CCOc1cc(CNCCO)cc(Br)c1OCc1ccc(Cl)cc1Cl,EC50,[9],4.89 µM (active)
same,EC50,[10],4.69 µM (active)
same,AC50,[13],6.75 µM (active)
Cc1ccc(S(=O)(=O)N[C@@H]2C=C[C@@H](CC(=O)N3CCC(Cc4ccccc4)CC3)O[C@@H]2CO)cc1,AC50,[1],13.3 µM (active)
CN(NC(=O)c1ccccc1)c1nc2ccccc2nc1C(F)(F)F,EC50,[2],18.4 µM (active)
same,EC50,[3],26.9 µM (active)
same,EC50,[4],17.3 µM (active)
same,EC50,[5],16.5 µM (active)
O=C(c1ccccc1)c1ccc(NCCCn2ccnc2)c([N+](=O)[O-])c1,EC50,[2],> 150 µM (not active)
same,EC50,[3],> 150 µM (not active)
same,EC50,[14],1.8 µM (active)
same,EC50,[15],> 60 µM (not active)
same,EC50,[4],> 150 µM (inconclusive)
same,EC50,[5],147 µM (active)
S=C(Nc1ccccn1)c1ccccn1,EC50,[9],5.48 µM (active)
same,EC50,[10],5.37 µM (active)
O=C(N/N=C/c1ccco1)c1cc(-c2ccncc2)nc2ccccc12,EC50,[2],15.2 µM (active)
same,EC50,[3],60.7 µM (active)
same,EC50,[4],> 75 µM (not active)
same,EC50,[5],23.3 µM (active)
Cc1cccc(NC(=O)Cn2cnc3c(cnn3-c3ccc(F)cc3)c2=O)c1C,EC50,[9],6.93 µM (active)
same,EC50,[10],14.2 µM (active)
